{"source": "patent US8076485B2", "about": "“Methylphenidate derivatives and uses of them” (priority 2005, dated 2011)", "tested_on": "HUVECs", "experiment": "HUVEC proliferation (Promega cell titer assay)", "format": "cell-based, human", "settings": "48 hours; for Mean OD at 530 nm: HUVECs", "experimental": "Passage 4 HUVECs, lot number 9713, in either EGM-2 plus 50 ng/ml vascular endothelial growth factor (VEGF) (obtained from Sigma) or in EGM-2 complete medium (containing 2% FCS, hydrocortisone, human fibroblast growth factor B, VEGF, recombinant insulin-like growth factor-1, ascorbate, human […], gentamycin and heparin) (obtained from Cambrex) were put into the wells of a 96-well tissue culture plate at 5,000 cells/well. The following additives were added to the cells: water (vehicle control); 5 μg/ml of the compound of formula II (Cpd II); 15 μg/ml Cpd II; or 30 μg/ml of Cpd II. After 48 hours of culture at 37° C. and 5% CO2, cell proliferation was evaluated by the Promega cell titer assay as described in Example 1, except that the plates were incubated for only 2 hours after addition of the Promega cell titer reagent."}
{"smiles": "COC(=O)C(c1ccc(-c2ccccc2)cc1)C1CCCCN1", "note": "(stereo not shown) [Cpd II]", "values": [{"measurement": "number of cells detected in the wells", "setting": "HUVECs, 5, 15, 30 μg/ml", "result": "reduced the number of cells detected in the wells in a dose-dependent manner"}, {"measurement": "Mean OD at 530 nm", "setting": "EGM-2 + VEGF, 5 μg/ml, vehicle 0.224 ± 0.011", "result": "0.189 ± 0.014"}, {"measurement": "Mean OD at 530 nm", "setting": "EGM-2 + VEGF, 15 μg/ml, vehicle 0.224 ± 0.011", "result": "0.132 ± 0.022"}, {"measurement": "Mean OD at 530 nm", "setting": "EGM-2 + VEGF, 30 μg/ml, vehicle 0.224 ± 0.011", "result": "0.046 ± 0.012"}, {"measurement": "Mean OD at 530 nm", "setting": "EGM-2 + growth factors, 5 μg/ml, vehicle 0.299 ± 0.011", "result": "0.271 ± 0.022"}, {"measurement": "Mean OD at 530 nm", "setting": "EGM-2 + growth factors, 15 μg/ml, vehicle 0.299 ± 0.011", "result": "0.239 ± 0.019"}, {"measurement": "Mean OD at 530 nm", "setting": "EGM-2 + growth factors, 30 μg/ml, vehicle 0.299 ± 0.011", "result": "0.066 ± 0.003"}]}
